Results reported in BindingDB's records for doi:10.1016/s0960-894x(02)00064-1 (University of Lyon 1, 2002).

biological target: Toxoplasma gondii purine nucleoside phosphorylase (Toxoplasma gondii); assay: Compound was evaluated for its binding affinity against Toxoplasma gondii purine nucleoside phosphorylase of virulent strain RH (value indicates competitive inhibition)

Going from `O=c1[nH]cnc2c1cnn2[C@@H]1O[C@H](CO)[C@@H](O)[C@H]1O` to `O=C1C=CC(=O)c2c1nc(Cc1ccccc1)n2Cc1ccccc1` [1,2-Dibenzyl-1H-benzoimidazole-4,7-dione], the Ki falls from 1800 µM to 670 µM (2.7-fold).

biological target: Toxoplasma gondii purine nucleoside phosphorylase (Toxoplasma gondii); assay: as above; remark: another data set of the same source

First: O=c1[nH]cnc2c1cnn2[C@@H]1O[C@H](CO)[C@@H](O)[C@H]1O
Second: Cc1nc2c(n1Cc1ccccc1)C(=O)C=CC2=O [1-Benzyl-2-methyl-1H-benzoimidazole-4,7-dione]
The Ki of the first is 1.9-fold higher: 2000 µM for the first, 1050 µM for the second. The second binds more tightly here.

biological target: Toxoplasma gondii purine nucleoside phosphorylase (Toxoplasma gondii); assay: Compound was evaluated for its binding affinity against Toxoplasma gondii purine nucleoside phosphorylase from cystic strain ME 49 (value indicates competitive inhibition)

`O=C1C=CC(=O)c2c1nc(Cc1ccccc1)n2Cc1ccccc1` [1,2-Dibenzyl-1H-benzoimidazole-4,7-dione] and `Cc1nc2c(n1Cc1ccccc1)C(=O)C=CC2=O` [1-Benzyl-2-methyl-1H-benzoimidazole-4,7-dione] are within 1.5-fold of each other in Ki: 350 µM for the first, 300 µM for the second.

biological target: Toxoplasma gondii purine nucleoside phosphorylase (Toxoplasma gondii); assay: Compound was evaluated for its binding affinity against Toxoplasma gondii purine nucleoside phosphorylase of virulent strain RH (value indicates Non competitive inhibition)

`O=C1C=CC(=O)c2c1ncn2Cc1ccccc1F` [1-(2-Fluoro-benzyl)-1H-benzoimidazole-4,7-dione] and `O=C1C=CC(=O)c2c1ncn2Cc1cccc(F)c1` [1-(3-Fluoro-benzyl)-1H-benzoimidazole-4,7-dione] are within 1.5-fold of each other in Ki: 1480 µM for the first, 990 µM for the second.

First: O=C1C=CC(=O)c2c1ncn2Cc1ccc(F)cc1 [1-(4-Fluoro-benzyl)-1H-benzoimidazole-4,7-dione]
Second: CCCCn1cnc2c1C(=O)C=CC2=O [1-Butyl-1H-benzoimidazole-4,7-dione]
The Ki of the first is 3.8-fold lower: 780 µM for the first, 2960 µM for the second.

`Cn1cnc2c1C(=O)C=CC2=O` [1-Methyl-1H-benzoimidazole-4,7-dione] and `O=C1C=CC(=O)c2[nH]cnc21` [1H-Benzoimidazole-4,7-dione] are within 1.5-fold of each other in Ki: 2210 µM for the first, 1650 µM for the second.

biological target: Toxoplasma gondii purine nucleoside phosphorylase (Toxoplasma gondii); assay: Compound was evaluated for its binding affinity against Toxoplasma gondii purine nucleoside phosphorylase from cystic strain ME 49 (value indicates Non competitive inhibition)

Going from `O=C1C=CC(=O)c2c1ncn2Cc1ccccc1F` [1-(2-Fluoro-benzyl)-1H-benzoimidazole-4,7-dione] to `O=C1C=CC(=O)c2c1ncn2Cc1cccc(F)c1` [1-(3-Fluoro-benzyl)-1H-benzoimidazole-4,7-dione], the Ki falls from 1500 µM to 520 µM (2.9-fold). The second binds more tightly here.

Compared with `O=C1C=CC(=O)c2c1ncn2Cc1ccc(F)cc1` [1-(4-Fluoro-benzyl)-1H-benzoimidazole-4,7-dione], `CCCCn1cnc2c1C(=O)C=CC2=O` [1-Butyl-1H-benzoimidazole-4,7-dione] is 1.8-fold lower in Ki: 990 µM for the first, 560 µM for the second.

`O=C1C=CC(=O)c2[nH]cnc21` [1H-Benzoimidazole-4,7-dione] gave a Ki of 550 µM.
